In US8168592B2 (Amgen Inc., priority 2005, dated 2012):
Like-named read-outs stand apart in the source and are kept apart here. Bridge positions count the residues as written; N and C are the ends. Square brackets hold non-standard residues; d marks the D form. Peptide text beside a SMILES is read from it. 2Nal = N[C@@H](Cc1ccc2ccccc2c1)C(=O)O; hArg = N=C(N)NCCCC[C@H](N)C(=O)O; Cit = NC(=O)NCCC[C@H](N)C(=O)O

Molecular target: T1, CGRP1 receptor (Homo sapiens, UniProt O60894+Q16602)
T1 construct: SK-N-MC cells express CRLR and RAMP1, which form CGRP1 receptor; endogenous in cells; host or cells: SK-N-MC human neuroblastoma cells
T1 sequence (Q16602 23-461): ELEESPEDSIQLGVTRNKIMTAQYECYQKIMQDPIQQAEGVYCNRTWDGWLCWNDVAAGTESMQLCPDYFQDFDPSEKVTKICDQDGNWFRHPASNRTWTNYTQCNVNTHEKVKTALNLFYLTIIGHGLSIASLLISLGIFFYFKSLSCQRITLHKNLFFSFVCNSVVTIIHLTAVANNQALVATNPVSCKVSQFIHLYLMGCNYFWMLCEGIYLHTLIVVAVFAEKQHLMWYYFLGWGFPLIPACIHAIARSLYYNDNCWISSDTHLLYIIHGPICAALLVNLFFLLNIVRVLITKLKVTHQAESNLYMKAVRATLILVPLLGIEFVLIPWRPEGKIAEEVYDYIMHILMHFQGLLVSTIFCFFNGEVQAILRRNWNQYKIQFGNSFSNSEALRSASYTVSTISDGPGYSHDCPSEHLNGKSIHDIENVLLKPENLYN
T1 sequence (O60894 27-148): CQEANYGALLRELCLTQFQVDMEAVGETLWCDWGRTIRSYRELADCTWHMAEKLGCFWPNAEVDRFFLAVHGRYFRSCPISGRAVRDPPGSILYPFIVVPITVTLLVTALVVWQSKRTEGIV
Experiment: in vitro CGRP1 receptor mediated cAMP assay in SK-N-MC cells
Format: cell-based
In short: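 Human SK-N-MC neuroblastoma cells, which endogenously express CRLR/RAMP1, were plated two days before assay and preincubated in plasma-free medium for 15 minutes at room temperature. Cells were then lysed for 30 minutes at 37° C, and cAMP in the lysates was quantified by competitive cAMP-AP chemiluminescent ELISA.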

[1] = Peptide IC50, Table 2C, unconjugated peptide
[2] = Table 2C, unconjugated peptide, read-out: Peptide IC50

CC(=O)N[C@@H](Cc1c[nH]c2ccccc12)C(=O)N[C@H](C(=O)N[C@H]1CCC(=O)NCCCC[C@@H](C(=O)NCC(=O)N[C@@H](CC(C)C)C(=O)N[C@@H](CC(C)C)C(=O)N[C@@H](CO)C(=O)N[C@@H](CCCNC(N)=O)C(=O)N[C@@H](CO)C(=O)NCC(=O)NCC(=O)N[C@H](C(=O)N[C@H](C(=O)N[C@@H](CCCNC(=N)N)C(=O)N[C@@H](CCCCN)C(=O)N[C@@H](CC(N)=O)C(=O)N[C@@H](Cc2ccccc2)C(=O)N[C@H](C(=O)N2CCC[C@H]2C(=O)N[C@H](C(=O)N[C@@H](CC(=O)O)C(=O)N[C@H](C(=O)NCC(=O)N2CCC[C@H]2C(=O)N[C@@H](Cc2ccccc2)C(=O)N[C@@H](C)C(=O)N[C@@H](Cc2ccccc2)C(N)=O)C(C)C)[C@@H](C)O)C(C)C)C(C)C)C(C)C)NC(=O)[C@H](CC(C)C)NC(=O)[C@H](CCCNC(=N)N)NC(=O)[C@H](Cc2c[nH]cn2)NC1=O)C(C)C [compound 893] (Ac-WVEHRLKGLLS[Cit]SGGVVRKNFVPTDVGPFAF-NH2; lactam 3-7)
IC50 [1]: 1.64 nM

SEQ ID NO:9 (Ac-WVTHRLAGLLSRSGGVVCNNFVPTDVGPFAF-NH2)
antagonist activity in cAMP assay, in words: somewhat less active

CC(=O)N[C@@H](Cc1c[nH]c2ccccc12)C(=O)N[C@H](C(=O)N[C@H](C(=O)N[C@@H](Cc1c[nH]cn1)C(=O)N[C@@H](CCCNC(N)=O)C(=O)N[C@@H](CC(C)C)C(=O)N[C@@H](C)C(=O)NCC(=O)N[C@@H](CC(C)C)C(=O)N[C@@H](CC(C)C)C(=O)N[C@@H](CO)C(=O)N[C@@H](CCCNC(N)=O)C(=O)N[C@@H](CO)C(=O)NCC(=O)NCC(=O)N[C@H](C(=O)N[C@H](C(=O)N[C@@H](Cc1ccc(NC(=N)N)cc1)C(=O)N[C@@H](CCCCN)C(=O)N[C@@H](CC(N)=O)C(=O)N[C@@H](Cc1ccccc1)C(=O)N[C@H](C(=O)N1CCC[C@H]1C(=O)N[C@H](C(=O)N[C@@H](CC(=O)O)C(=O)N[C@H](C(=O)NCC(=O)N1[C@H](C(=O)N[C@@H](Cc2ccccc2)C(=O)N[C@@H](C)C(=O)N[C@@H](Cc2ccccc2)C(N)=O)C[C@@H]2CCCC[C@@H]21)C(C)C)[C@@H](C)O)C(C)C)C(C)C)C(C)C)[C@@H](C)O)C(C)C [compound 664]
IC50 (Table 2A, read-out: IC50): 2.29 to 2.95 nM

CC(=O)N[C@@H](Cc1c[nH]c2ccccc12)C(=O)N[C@H](C(=O)N[C@H](C(=O)N[C@@H](Cc1cnc[nH]1)C(=O)N[C@@H](CCCNC(N)=O)C(=O)N[C@@H](CC(C)C)C(=O)N[C@@H](C)C(=O)NCC(=O)N[C@@H](CC(C)C)C(=O)N[C@@H](CC(C)C)C(=O)N[C@@H](CO)C(=O)N[C@@H](CCCNC(N)=O)C(=O)N[C@@H](CO)C(=O)NCC(=O)NCC(=O)N[C@H](C(=O)N[C@H](C(=O)N[C@@H](CCCCNC(=N)N)C(=O)N[C@@H](CCCCN)C(=O)N[C@@H](CC(N)=O)C(=O)N[C@@H](Cc1ccccc1)C(=O)N[C@H](C(=O)N1CCC[C@H]1C(=O)N[C@H](C(=O)N[C@@H](CC(=O)O)C(=O)N[C@H](C(=O)NCC(=O)N1CCC[C@H]1C(=O)N[C@@H](Cc1ccccc1)C(=O)N[C@@H](C)C(=O)N[C@@H](Cc1ccccc1)C(N)=O)C(C)C)[C@@H](C)O)C(C)C)C(C)C)C(C)C)[C@@H](C)O)C(C)C [compound 653]
IC50 (Table 2A, read-out: IC50): 3.22 nM

CC(=O)N[C@@H](Cc1c[nH]c2ccccc12)C(=O)N[C@H](C(=O)N[C@H](C(=O)N[C@@H](Cc1c[nH]cn1)C(=O)N[C@@H](CCCCNC(=N)N)C(=O)N[C@@H](CC(C)C)C(=O)N[C@@H](C)C(=O)NCC(=O)N[C@@H](CC(C)C)C(=O)N[C@@H](CC(C)C)C(=O)N[C@@H](CO)C(=O)N[C@@H](CCCNC(N)=O)C(=O)N[C@@H](CO)C(=O)NCC(=O)NCC(=O)N[C@H](C(=O)N[C@H](C(=O)N[C@@H](CCCCNC(=N)N)C(=O)N[C@@H](CCCCN)C(=O)N[C@@H](CC(N)=O)C(=O)N[C@@H](Cc1ccccc1)C(=O)N[C@H](C(=O)N1CCC[C@H]1C(=O)N[C@H](C(=O)N[C@@H](CC(=O)O)C(=O)N[C@H](C(=O)NCC(=O)N1CCC[C@H]1C(=O)N[C@@H](Cc1ccc2ccccc2c1)C(=O)N[C@@H](C)C(=O)N[C@@H](Cc1ccccc1)C(N)=O)C(C)C)[C@@H](C)O)C(C)C)C(C)C)C(C)C)[C@@H](C)O)C(C)C [compound 926] (Ac-WVTH[hArg]LAGLLS[Cit]SGGVV[hArg]KNFVPTDVGP[2Nal]AF-NH2)
IC50 [2]: 0.88 nM

CC(=O)N[C@@H](Cc1c[nH]c2ccccc12)C(=O)N[C@H](C(=O)N[C@H]1CCC(=O)NCCCC[C@@H](C(=O)NCC(=O)N[C@@H](CC(C)C)C(=O)N[C@@H](CC(C)C)C(=O)N[C@@H](CO)C(=O)N[C@@H](CCCNC(N)=O)C(=O)N[C@@H](CO)C(=O)NCC(=O)NCC(=O)N[C@H](C(=O)N[C@H](C(=O)N[C@@H](CCCCNC(=N)N)C(=O)N[C@@H](CCCCN)C(=O)N[C@@H](CC(N)=O)C(=O)N[C@@H](Cc2ccccc2)C(=O)N[C@H](C(=O)N2CCC[C@H]2C(=O)N[C@H](C(=O)N[C@@H](CC(=O)O)C(=O)N[C@H](C(=O)NCC(=O)N2CCC[C@H]2C(=O)N[C@@H](Cc2ccccc2)C(=O)N[C@@H](C)C(=O)N[C@@H](Cc2ccccc2)C(N)=O)C(C)C)[C@@H](C)O)C(C)C)C(C)C)C(C)C)NC(=O)[C@H](CC(C)C)NC(=O)[C@H](CCCCNC(=N)N)NC(=O)[C@H](Cc2c[nH]cn2)NC1=O)C(C)C [compound 908] (Ac-WVEH[hArg]LKGLLS[Cit]SGGVV[hArg]KNFVPTDVGPFAF-NH2; lactam 3-7)
IC50 [2]: 1.28 nM

CC(=O)N[C@@H](Cc1c[nH]c2ccccc12)C(=O)N[C@H](C(=O)N[C@H]1CCC(=O)NCCCC[C@@H](C(=O)NCC(=O)N[C@@H](CC(C)C)C(=O)N[C@@H](CC(C)C)C(=O)N[C@@H](CO)C(=O)N[C@@H](CCCNC(N)=O)C(=O)N[C@@H](CO)C(=O)NCC(=O)NCC(=O)N[C@H](C(=O)N[C@H](C(=O)N[C@@H](CCCCNC(=N)N)C(=O)N[C@@H](CCCCN)C(=O)N[C@@H](CC(N)=O)C(=O)N[C@@H](Cc2ccccc2)C(=O)N[C@H](C(=O)N2CCC[C@H]2C(=O)N[C@H](C(=O)N[C@@H](CC(=O)O)C(=O)N[C@H](C(=O)NCC(=O)N2CCC[C@H]2C(=O)N[C@@H](Cc2ccccc2)C(=O)N[C@@H](C)C(=O)N[C@@H](Cc2ccccc2)C(N)=O)C(C)C)[C@@H](C)O)C(C)C)C(C)C)C(C)C)NC(=O)[C@H](CC(C)C)NC(=O)[C@H](CCCNC(=N)N)NC(=O)[C@H](Cc2c[nH]cn2)NC1=O)C(C)C [compound 906] (Ac-WVEHRLKGLLS[Cit]SGGVV[hArg]KNFVPTDVGPFAF-NH2; lactam 3-7)
IC50 [1]: 1.15 nM

CC(=O)N[C@@H](Cc1c[nH]c2ccccc12)C(=O)N[C@H](C(=O)N[C@H]1CCC(=O)NCCCC[C@@H](C(=O)NCC(=O)N[C@@H](CC(C)C)C(=O)N[C@@H](CC(C)C)C(=O)N[C@@H](CO)C(=O)N[C@@H](CCCNC(N)=O)C(=O)N[C@@H](CO)C(=O)NCC(=O)NCC(=O)N[C@H](C(=O)N[C@H](C(=O)N[C@@H](CCCCNC(=N)N)C(=O)N[C@@H](CCCCN)C(=O)N[C@@H](CC(N)=O)C(=O)N[C@@H](Cc2ccccc2)C(=O)N[C@H](C(=O)N2CCC[C@H]2C(=O)N[C@H](C(=O)N[C@@H](CC(=O)O)C(=O)N[C@H](C(=O)NCC(=O)N2CCC[C@H]2C(=O)N[C@@H](Cc2ccccc2)C(=O)N[C@@H](C)C(=O)N[C@@H](Cc2ccccc2)C(N)=O)C(C)C)[C@@H](C)O)C(C)C)C(C)C)C(C)C)NC(=O)[C@H](CC(C)C)NC(=O)[C@H](CCCNC(=N)N)NC(=O)[C@H](Cc2c[nH]cn2)NC1=O)C(C)C [compound 663] (Ac-WVEHRLKGLLS[Cit]SGGVV[hArg]KNFVPTDVGPFAF-NH2; lactam 3-7)
IC50 (IC50, Table 2A): 1.22 to 2.06 nM

SEQ ID NO:42 (Ac-WVTHRLAGLLS[dR]SGGVVRCNFVPTDVGPFAF-NH2; not fully specified (residue 19); printed as Ac-WVTHRLAGLLSrSGGVVRCNFVPTDVGPFAF-NH2)
loss in antagonist activity on PEGylation relative to the unconjugated parent peptide (cAMP assay): greater than 32 fold
